ChEMBL document CHEMBL1140244, “Carbonic anhydrase inhibitors. Synthesis and inhibition of cytosolic/tumor-associated carbonic anhydrase isozymes I, II, and IX with boron-containing sulfonamides, sulfamides, and sulfamates: toward agents for boron neutron capture therapy of hypoxic tumors” (Bioorg Med Chem Lett, 2005)

Legend:
Carbonic anhydrase 1 = Carbonic anhydrase 1 (Homo sapiens, UniProt P00915)
Carbonic anhydrase 9 = Carbonic anhydrase 9 (Homo sapiens, UniProt Q16790)
Carbonic anhydrase 2 = Carbonic anhydrase 2 (Homo sapiens, UniProt P00918)

Carbonic anhydrase 1, sequence (P00915 whole entry): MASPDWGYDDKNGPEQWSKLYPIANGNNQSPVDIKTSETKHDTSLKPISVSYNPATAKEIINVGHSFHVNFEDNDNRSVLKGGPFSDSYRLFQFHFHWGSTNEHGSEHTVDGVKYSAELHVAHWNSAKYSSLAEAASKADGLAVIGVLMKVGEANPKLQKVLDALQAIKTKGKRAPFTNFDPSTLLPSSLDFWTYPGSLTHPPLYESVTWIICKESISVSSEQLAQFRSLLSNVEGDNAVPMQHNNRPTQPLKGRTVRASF

Compound	Ki (Carbonic anhydrase 1)	Ki (Carbonic anhydrase 9)	Ki (Carbonic anhydrase 2)
CC1(C)OB(c2ccc(N/C(S)=N/c3ccc(S(N)(=O)=O)cc3F)cc2)OC1(C)C	77 nM	10.1 nM	5.1 nM
CC1(C)OB(c2ccc(C(=O)NCc3ccc(S(N)(=O)=O)cc3)cc2)OC1(C)C	69 nM		5.4 nM
CC1(C)OB(c2ccc(NC(=S)Nc3ccc(S(N)(=O)=O)cc3)cc2)OC1(C)C	69 nM	80 nM	5.1 nM
CC1(C)OB(c2ccc(OS(N)(=O)=O)cc2)OC1(C)C	94 nM	80 nM	32 nM
CC1(C)OB(c2ccc(C(=O)NCCc3ccc(S(N)(=O)=O)cc3)cc2)OC1(C)C	70 nM	42 nM	5.1 nM
CC1(C)OB(c2ccc(NC(=S)Nc3cccc(S(N)(=O)=O)c3)cc2)OC1(C)C	70 nM	81 nM	5.5 nM
CC1(C)OB(c2ccc(NS(N)(=O)=O)cc2)OC1(C)C	92 nM	81 nM	
CC1(C)OB(c2ccc(NC(=S)Nc3ccc(S(N)(=O)=O)cc3I)cc2)OC1(C)C	91 nM	9.3 nM	9.8 nM
CC1(C)OB(c2ccc(NC(=S)Nc3ccc(S(N)(=O)=O)cc3Br)cc2)OC1(C)C	72 nM	89 nM	5.1 nM
CC1(C)OB(c2ccc(NC(=S)Nc3ccc(S(=O)(=O)Nc4nnc(S(N)(=O)=O)s4)cc3)cc2)OC1(C)C	34 nM	7.3 nM	5.1 nM
CC1(C)OB(c2ccc(N/C(S)=N/c3ccc(S(N)(=O)=O)cc3Cl)cc2)OC1(C)C	70.5 nM	81 nM	5 nM
CC1(C)OB(c2ccc(N/C(S)=N/c3ccc(S(=O)(=O)Nc4ccc(S(N)(=O)=O)cc4)cc3)cc2)OC1(C)C	49 nM	84 nM	6.3 nM
CC1(C)OB(c2ccc(C(=O)Nc3ccc(S(N)(=O)=O)cc3)cc2)OC1(C)C	70 nM	53 nM	5.2 nM
CC1(C)OB(c2ccc(C(=O)Nc3nnc(S(N)(=O)=O)s3)cc2)OC1(C)C	36 nM	7.6 nM	3.1 nM
